In article PMC6598531, “Appraisal of anti-protozoan activity of nitroaromatic benzenesulfonamides inhibiting carbonic anhydrases from Trypanosoma cruzi and Leishmania donovani” (Journal of Enzyme Inhibition and Medicinal Chemistry, 2019):
In brackets after ≈: the same amount, converted by molar mass. Read-outs that look alike come from different tables or passages of the source.

What was measured:
[1] = tested on: T. cruzi Dm 28c; test: growth inhibition of T. cruzi Dm28c epimastigotes (resazurin); format: cell-based; details: Trypanosoma cruzi, 48 h; for MIC: epimastigotes, 28 °C
[2] = tested on: T. cruzi Y; test: growth inhibition of T. cruzi Y epimastigotes (resazurin); format: cell-based; details: Trypanosoma cruzi, 48 h, 28 °C
[3] = in vitro; details: mouse, RAW 264.7 macrophages
[4] = molecular target: LdcCA (Leishmania infantum, UniProt A4HSV2); test: biochemical
Sequence of LdcCA (A4HSV2 1-306): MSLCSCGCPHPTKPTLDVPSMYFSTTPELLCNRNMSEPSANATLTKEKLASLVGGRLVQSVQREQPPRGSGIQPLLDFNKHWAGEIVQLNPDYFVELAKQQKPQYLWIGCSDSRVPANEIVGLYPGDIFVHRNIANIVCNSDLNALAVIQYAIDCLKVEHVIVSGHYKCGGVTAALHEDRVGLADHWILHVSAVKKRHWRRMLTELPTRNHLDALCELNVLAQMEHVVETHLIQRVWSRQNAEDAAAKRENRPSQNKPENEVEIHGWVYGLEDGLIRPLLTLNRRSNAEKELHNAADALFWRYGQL

[5] = tested on: L. amazonensis; test: growth inhibition of L. amazonensis promastigotes (resazurin); format: cell-based; details: Leishmania amazonensis, 48 h; for MIC: promastigotes, 28 °C
[6] = tested on: L. infantum; test: growth inhibition of L. infantum promastigotes (resazurin); format: cell-based; details: Leishmania infantum, 48 h; for MIC: promastigotes, 28 °C
[7] = molecular target: hCA I (Homo sapiens, UniProt P00915); test: stopped flow CO2 hydrase assay, hCA I inhibition
Sequence of hCA I (P00915 whole entry): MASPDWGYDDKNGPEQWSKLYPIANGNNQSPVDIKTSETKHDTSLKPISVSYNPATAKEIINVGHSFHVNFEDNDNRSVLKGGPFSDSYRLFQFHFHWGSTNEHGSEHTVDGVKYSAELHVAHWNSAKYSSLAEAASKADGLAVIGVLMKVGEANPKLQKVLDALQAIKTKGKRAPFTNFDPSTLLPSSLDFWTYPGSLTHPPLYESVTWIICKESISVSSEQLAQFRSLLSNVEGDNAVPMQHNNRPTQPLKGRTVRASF

[8] = molecular target: hCA II (Homo sapiens, UniProt P00918); test: stopped flow CO2 hydrase assay, hCA II inhibition
[9] = read-out: KI hCA I, stopped flow CO2 hydrase assay, mean from three assays
[10] = read-out: KI hCA II, stopped flow CO2 hydrase assay, mean from three assays
[11] = concentration which reduced the number of promastigotes by 50%

Row | Structure (SMILES) | IC50 ([1]; concentration which reduced the proliferation of epimastigotes by 50%) [nM] | MIC [1] [µM] | MIC [2] [µM] | CC50 at 48 h [3] [nM] | SI (KI1/KI2) CA I/LdcCA [4] | SI (KI1/KI2) CA II/LdcCA [4] | Ki ([4]; read-out: KI LdCA) [nM] | MIC [5] [µM] | MIC [6] [µM] | Ki [7, 9] [nM] | Ki [8, 10] [nM] | Ki [7] [nM] | Ki [8] [nM] | Ki [4] [nM] | IC50 [5, 11] [nM] | IC50 [6, 11] [nM]
1 | O=C(Cn1ccnc1[N+](=O)[O-])NCc1ccccc1 [Bzn, benznidazole, reference compound] | 16600 ± 1510 | 32 (≈ 8.33 µg/mL) | 32 (≈ 8.33 µg/mL) | 115000 ± 9480 | – | – | – | – | – | – | – | – | – | – | – | –
2 | NS(=O)(=O)c1cc(NC(=O)c2ccc(F)cc2)c(OC(=O)c2ccc(F)cc2)c([N+](=O)[O-])c1 [Compound 10] | – | > 256 | > 256 | 180000 ± 21300 | 0.3 | 0.1 | 8490 | > 400 | > 400 | 2920 | 460 | – | – | – | – | –
3 | CC(=O)OC[C@@H]1O[C@@H](OC(C)=O)[C@@H](NC(=O)Nc2cc(S(N)(=O)=O)cc([N+](=O)[O-])c2O)[C@H](OC(C)=O)[C@H]1OC(C)=O [Compound 24] | – | > 256 | > 256 | > 256000 | 1.6 | 0.5 | 3640 | > 400 | > 400 | 5670 | 1890 | – | – | – | – | –
4 | NS(=O)(=O)c1cc(O)c(O)c([N+](=O)[O-])c1 [Compound 12] | – | – | – | – | 15.9 | 1.6 | 390 | – | – | 6210 | 640 | – | – | – | – | –
5 | NS(=O)(=O)c1cc(NC(=O)NCCc2ccccc2)c(O)c([N+](=O)[O-])c1 [Compound 22] | – | – | – | – | 10.8 | 3.6 | 860 | – | – | 9290 | 3080 | – | – | – | – | –
6 | NS(=O)(=O)c1ccc(O)c([N+](=O)[O-])c1 [Compound 4] | – | > 256 | > 256 | 97600 ± 11100 | 4.3 | 1.1 | 210 | > 400 | > 400 | 910 | 240 | – | – | – | – | –
7 | NS(=O)(=O)c1cc(NC(=O)c2ccccc2)c(OC(=O)c2ccccc2)c([N+](=O)[O-])c1 [Compound 9] | – | – | – | – | 0.4 | 0.1 | 3870 | – | – | 1380 | 390 | – | – | – | – | –
8 | Cc1cc(C)[n+](-c2cc(S(N)(=O)=O)cc([N+](=O)[O-])c2O)c(C)c1 [Compound 11] | – | > 256 | > 256 | > 256000 | >7.6 | 0.3 | 6570 | > 400 | > 400 | – | 1810 | > 50000 | – | – | – | –
9 | NS(=O)(=O)c1cc(NC(=O)Nc2c(F)c(F)c(F)c(F)c2F)c(O)c([N+](=O)[O-])c1 [Compound 17] | – | > 256 | > 256 | > 256000 | 0.5 | 0.2 | 1360 | > 400 | > 400 | 690 | 270 | – | – | – | – | –
10 | NS(=O)(=O)c1cc(NC(=O)Nc2ccc(F)cc2)c(O)c([N+](=O)[O-])c1 [Compound 14] | – | – | – | – | 5.5 | 0.5 | 980 | – | – | 5390 | 530 | – | – | – | – | –
11 | NS(=O)(=O)c1cc(NC(=O)N[C@@H]2C(O)O[C@@H](CO)[C@H](O)[C@H]2O)c(O)c([N+](=O)[O-])c1 (stereo partly shown) [Compound 25] | – | – | – | – | 1.7 | 0.3 | 2970 | – | – | 4920 | 860 | – | – | – | – | –
12 | NS(=O)(=O)c1cc(NC(=O)Nc2ccc(C(F)(F)F)cc2)c(O)c([N+](=O)[O-])c1 [Compound 15] | – | – | – | – | 2.2 | 0.1 | 2340 | – | – | 5200 | – | – | 240 | – | – | –
13 | NS(=O)(=O)c1cc(NC(=O)Nc2ccccc2)c(O)c([N+](=O)[O-])c1 [Compound 13] | – | – | – | – | >47.2 | 2.6 | 1060 | – | – | – | 2780 | – | – | – | – | –
14 | NS(=O)(=O)c1cc([N+](=O)[O-])c(OC(=O)c2ccccc2)c([N+](=O)[O-])c1 [Compound 7] | – | – | – | – | 1.0 | 0.2 | – | – | – | 4790 | 840 | – | – | 4680 | – | –
15 | NS(=O)(=O)c1cc(NC(=O)NCc2ccco2)c(O)c([N+](=O)[O-])c1 [Compound 23] | – | – | – | – | >49.0 | 2.5 | 1020 | – | – | – | 2530 | – | – | – | – | –
16 | NS(=O)(=O)c1cc(NC(=O)Nc2ccc3c(c2)OCO3)c(O)c([N+](=O)[O-])c1 [Compound 19] | – | > 256 | > 256 | 173000 ± 10400 | >24.6 | 2.1 | 2030 | > 400 | > 400 | – | 4330 | – | – | – | – | –
17 | COc1cccc(NC(=O)Nc2cc(S(N)(=O)=O)cc([N+](=O)[O-])c2O)c1 [Compound 18] | – | > 256 | > 256 | > 256000 | 8.6 | 5.4 | 950 | > 400 | > 400 | 8210 | 5150 | – | – | – | – | –
18 | Cc1cc(C)cc(NC(=O)Nc2cc(S(N)(=O)=O)cc([N+](=O)[O-])c2O)c1 [Compound 20] | – | – | – | – | 4.5 | 0.2 | 1860 | – | – | 8330 | 450 | – | – | – | – | –
19 | C[C@@H]1[C@H](O)[C@@H](C)/C=C/C=C/C=C/C=C/C=C/C=C/C=C/[C@H](O[C@@H]2O[C@H](C)[C@@H](O)[C@H](N)[C@@H]2O)C[C@@H]2O[C@](O)(C[C@@H](O)C[C@@H](O)[C@H](O)CC[C@@H](O)C[C@@H](O)CC(=O)O[C@H]1C)C[C@H](O)[C@H]2C(=O)O [Amp, amphotericin B, reference compound] | – | – | – | 1000 | – | – | – | 8 (≈ 7.39 µg/mL) | 8 (≈ 7.39 µg/mL) | – | – | – | – | – | 1650 ± 280 | 1770 ± 350
20 | NS(=O)(=O)c1cc(NC(=O)Nc2cc(C(F)(F)F)cc(C(F)(F)F)c2)c(O)c([N+](=O)[O-])c1 [Compound 21] | – | > 256 | > 256 | > 256000 | 1.6 | 0.5 | 3650 | > 400 | > 400 | 5990 | 1720 | – | – | – | – | –
21 | Nc1cc(S(N)(=O)=O)cc([N+](=O)[O-])c1O [Compound 8, 3-amino-4-hydroxy-5-nitro-benzenesulfonamide] | – | > 256 | > 256 | > 256000 | 13.4 | 1.3 | 460 | > 400 | > 400 | 6180 | 610 | – | – | – | – | –
22 | Cc1cc(NC(=O)Nc2cc(S(N)(=O)=O)cc([N+](=O)[O-])c2O)ccc1F [Compound 16] | – | – | – | – | 2.6 | 0.1 | 2960 | – | – | 7580 | 210 | – | – | – | – | –
